Reference: patent US20140296143A1, “Angiotensin-(1-7) As A Chemoprevention Agent” (Wake Forest Innovations, priority 2008, published 2014)

Assays:
EA.hy.926 cells = test: Tube formation of endothelial cells in Matrigel; format: cell-based, human; conditions: over the range of 0.5 to 100 nM
Description: These cells are a transformed human endothelial cell line derived from umbilical vein endothelial cells. They retain their endothelial phenotype and were previously used to study angiogenesis.
After a 16 h incubation period to allow tube formation, cultures were photographed and branch points were counted, to quantify tube formation.

ERK1 = conditions: SK-LU-1, 10 nM pretreatment; Gallagher et al., 2004; cited from earlier work
[1] = system: A549 human lung tumor xenografts; test: A549 human lung tumor xenograft in athymic mice, intravenous infusion; format: in vivo, mouse
Description: For reverse-transcriptase real-time PCR, RNA was isolated from cells or tissue, using the TRIzol reagent (GIBCO Invitrogen Corp., Carlsbad, Calif.), as directed by the manufacturer. The RNA concentration and integrity were assessed using an Agilent 2100 Bioanalyzer with an RNA 6000 nano LabChip (Agilent Technologies, Palo Alto, Calif.). Approximately 1 μg of total RNA was reverse transcribed using avian myeloblastosis virus reverse transcriptase (RT) in a 20 μL mixture containing deoxyribonucleotides, random hexamers and RNase inhibitor in RT buffer. Heating the RT reaction product at 95° C. terminated the reaction. For real-time polymerase chain reaction (PCR), 2 μL of the resultant cDNA was added to TaqMan Universal PCR Master Mix (Applied Biosystems, Foster City, Calif.) with a gene-specific primer/probe set (Applied Biosystems, Foster City, Calif.) and amplification was performed on an ABI 7000 Sequence Detection System. The mixtures were heated at 50° C. for 2 min, at 95° C. for 10 min followed by 40 cycles at 95° C. for 15 sec and 60° C. for 1 min. All reactions were performed in triplicate and 18S ribosomal RNA, amplified using the TaqMan Ribosomal RNA Control Kit (Applied Biosystems), served as an internal control. The results were quantified as Ct values, where Ct is defined as the threshold cycle of PCR at which amplified product is first detected, and expressed as the ratio of target/control (Relative Gene Expression).
Quiescent A549 lung cancer cells or tumor tissue cut into approximately 1-2 mm^2 size pieces were homogenized in phosphate-buffered saline (PBS; 50 mM NaPO4, pH=7.2, 100 mM NaCl). Plasma membranes were isolated by centrifugation and solubilized by boiling in 3% SDS-10% B-mercaptoethanol. PBS was added to the membrane fraction to solubilize the proteins. The protein concentration was measured by a modification of the Lowry method. Solubilized protein (20 μg/well) from saline- and Ang-(1-7)-treated animals were separated by SDS-polyacrylamide gel electrophoresis and transferred to polyvinyl membranes (Amersham Pharmacia, Piscataway, N.J.). Non-specific binding was blocked with 5% blotto (5% evaporated milk, 0.1% Triton X-100 in Tris-buffered saline (TBS; 50 mM Tris-HCl, pH 7.4, 50 mM NaCl). The membranes were incubated with a COX-2 antibody (1:1000; Cayman Chemicals, Ann Arbor, Mich.) followed by a goat anti-rabbit antibody (1:1000; Amersham, Piscataway, N.J.) coupled to horseradish peroxidase. Chemiluminescence reagents were added to visualize the immunoreactive bands, which were quantified by densitometry. An antibody to actin (Sigma, St Louis, Mo.) served as the loading control.
(§1) Male or female athymic mice (15-20 g, 2-4 weeks of age, Charles River Laboratory, Wilmington, Mass.) were housed in cages with HEPA-filtered air (12-hour light/dark cycle) and ad libitum access to food and autoclaved water. All procedures complied with the policies of the Wake Forest University Animal Care and Use Committee. Mice were inoculated subcutaneously in the lower left flank with approximately 1.9×10^6 A549 lung cancer cells or ZR-75-1 breast cancer cells suspended in 200 μL of cold Matrigel (BD Biosciences, Bedford, Mass.). […] The mice were anesthetized by inhalation with 1.5% isoflurane. […] The minipumps also contained heparin (25 U/mL) to maintain patency of the catheter. On day 28 of the infusion, the animals were anesthetized with halothane and sacrificed by decapitation. Alternatively, the mice received daily subcutaneous injections of Ang-(1-7) in saline or saline alone.
Tumors were fixed with 4% paraformaldehyde for 24 h and incubated in 70% ethanol for 48 h prior to embedding in paraffin. The embedded tumors were cut into five micron thick sections and stained with hematoxylin and eosin to determine morphology. […]

[2] = system: ZR-75-1 breast cancer cell line tumors; test: ZR-75-1 breast cancer xenograft in athymic mice, intravenous infusion; format: in vivo, mouse; conditions: 24 μg/kg/hr infusion, 28 days; saline tumors doubled
Description: as §1
Tumor volumes were measured by caliper two times per week and calculated using the formula for a semiellipsoid. After 40 days, the mice had tumors approximately 175 mm^3 in size and were randomized for treatment.

[3] = system: SK-LU-1 lung cancer cells; format: cell-based, human
Description: Cells were grown to subconfluence in either 24-well cluster plates or 100 mm dishes and made quiescent by treatment for 48 h with serum-depleted growth media, prior to the experiments outlined below to measure cell growth (^3H-thymidine incorporation), cell signaling or apoptosis.
Subsequently, the cell monolayer was washed with cold phosphate-buffered saline (PBS; 50 mM NaPO4, 120 mM NaCl, pH=7.2). The adherent cells were precipitated with cold 10% TCA (4° C. for 30 min) and dissolved in 0.2% SDS in 0.1 N NaOH.
During an additional 4 h, cell monolayers were pulsed with ^3H-thymidine (0.25 μCi/well) and harvested.

caspase-8 = test: Caspase-8 activity in A549 cell lysates, fluorometric assay; format: cell-based, human; conditions: A549 cells, 100 nM; maximal at 16 and 24 h
Description: The specificity of the activity of each caspase substrate was also verified by assays in the presence of specific inhibitors. […] Caspase-3 activity was measured by a fluorometric assay using Ac-DEVD-AFC (Acetylated-Asp-Glu-Val-Asp-7-amino-4-trifluoromethylcoumarin) (SEQ ID NO: 9) as a specific substrate for caspase-3 and Z-DEVD-CHO as a selective caspase-3 inhibitor. Caspase-8 activity was measured by a fluorometric assay using Ac-LETD-AFC (Acetylated-Leu-Glu-Thr-Asp-7-amino-4-trifluoromethylcoumarin) (SEQ ID NO: 10) as a specific substrate and Z-LETD-CHO as a selective caspase-8 inhibitor. The data are presented as relative fluorescence units (RFU).

SK-LU-1 cells = test: Gene array hybridization (Human Cancer 1.2 Atlas cDNA Expression Array) in SK-LU-1 cells; format: cell-based; conditions: SK-LU-1, 1% serum, 100 nM
Description: Cells were incubated for 2 or 8 h, and total RNA was isolated using the Atlas Pure Total RNA Labeling System (Clontech Laboratories, Inc). The RNA concentration was quantified by UV spectroscopy and any degradation was assessed by ethidium bromide staining intensity of 28S and 18S ribosomal RNA following agarose gel electrophoresis. RNA isolated from seven different cell passages was pooled prior to gene array analysis to account for individual variability in gene regulation. Radiolabeled cDNA, prepared from the pooled RNAs using the Atlas system, was incubated with DNase to degrade any residual DNA and then hybridized to the Human Cancer 1.2 Atlas cDNA Expression Array (Clonetech Laboratories, Inc). This gene array set contains 1,176 characterized human cDNAs on positively-charged nylon membranes.

[4] = 24 μg/kg/h intravenous, 28 days, versus saline
[5] = 28 days infusion, versus saline

In the case of `CC[C@H](C)[C@H](NC(=O)[C@H](Cc1ccc(O)cc1)NC(=O)[C@@H](NC(=O)[C@H](CCCNC(=N)N)NC(=O)[C@@H](N)CC(=O)O)C(C)C)C(=O)N[C@@H](Cc1c[nH]cn1)C(=O)N1CCC[C@H]1C(=O)O` [Ang-(1-7), Asp-Arg-Val-Tyr-Ile-His-Pro], the “inhibition of tube formation” value (EA.hy.926 cells) is given as “dose-dependent inhibition”, the “reduction of serum-stimulated phosphorylation of ERK1” value (ERK1) is given as 61% and the capsular vessel number [1, 4] is given as “no difference”. The “down-regulation in VEGF mRNA in tumor tissue” value [1, 4] was “greater than 50%”, the “reduction in intratumoral vessel formation” value [1, 4] was over 75% and the “average tumor volume at end of infusion” value ([1]; 24 μg/kg/h intravenous, day 28, n=5, saline 326.3±47.2) was 84.4±19.8 mm^3. The “body weight, food and water consumption during infusion” value ([1]; 24 μg/kg/h, 28 days) was “maintained their body weight as well as food and water consumption”, the “gross pathology of major organs following sacrifice” value ([1]; 24 μg/kg/h, 28 days) was “no gross pathological abnormalities” and the “APAF mRNA in tumor tissue” value [1, 5] was “significant increase”. The “caspase 3 mRNA in tumor tissue” value [1, 5] was “significant increase”, the “COX-2 protein, density of COX-2 immunoreactivity as a function of actin” value ([1]; Western blot of tumor tissue, n=5, saline 0.99±0.12) was 0.41±0.09 and the “tumor weight less than saline-infused” value ([1]; at sacrifice, day 28) was 50%. The tumor weight ([1]; at sacrifice, day 28, n=5, saline 0.28±0.03) was 0.13 ± 0.01 g, the “proportion of apoptotic nuclei (cleaved caspase 3)” value ([1]; intravenous infusion, n=4-5, saline 18.8±9.4%) was 75±4.6% and the “proportion of proliferating cells (Ki67)” value ([1]; n=5, saline 73±[…]) was 49.5±9.4%. For the same molecule, the “reduction of COX-2 protein” value ([1]; tumor tissue, versus saline) was 59%, the “decrease in COX-2 mRNA” value ([1]; tumor xenografts, RT real-time PCR, versus saline) was 57% and the “reduction in tumor volume compared to tumor size prior to treatment” value [2] was about 40%. For the same molecule, the “^3H-thymidine incorporation over time of treatment” value ([3]; SK-LU-1, 1% FBS, daily addition of 100 nM) was “progressively reduced”, the “effect on serum-stimulated ^3H-thymidine incorporation” value ([3]; SK-LU-1, peptide at 1 or 100 nM) was “reduced” and the “time-dependent increase in caspase-8 activity” value (caspase-8) was “about 2 fold”. The “expression of MEK5, ERK1, p21/K-ras 2B” value (SK-LU-1 cells) was “reduced” and the “expression of p16^INK4a, menin, BAD, BAK, apoptotic protease activating factor 1” value (SK-LU-1 cells) was “upregulated”.
